# In ChEMBL document CHEMBL1909560, “Design and synthesis of a library of chemokine antagonists” (Bioorg Med Chem Lett, 2011):
# Target: T1, C-C chemokine receptor type 1 (Homo sapiens, UniProt P32246)
# T1 sequence (P32246 whole entry): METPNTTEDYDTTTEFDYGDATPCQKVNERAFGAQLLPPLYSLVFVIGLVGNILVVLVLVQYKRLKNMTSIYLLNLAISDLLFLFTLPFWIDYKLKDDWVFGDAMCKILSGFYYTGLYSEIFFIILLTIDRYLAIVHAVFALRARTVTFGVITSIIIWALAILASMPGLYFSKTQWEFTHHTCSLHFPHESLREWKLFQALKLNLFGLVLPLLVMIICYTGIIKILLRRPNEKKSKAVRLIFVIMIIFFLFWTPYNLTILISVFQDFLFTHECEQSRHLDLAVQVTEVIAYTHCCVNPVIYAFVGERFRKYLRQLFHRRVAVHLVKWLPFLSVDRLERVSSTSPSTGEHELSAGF
# Test: Displacement of [125I]-MIP-1alpha 125I]-MCP1 from CCR1 expressed in CHO-K1 cells by scintillation proximity assay
# Type: cell-based
row,SMILES,IC50 [nM]
1,Cc1noc(C)c1S(=O)(=O)NCCCN1CCC(O)(c2ccc(Cl)cc2)CC1,261
2,O=C(NCCCCN1CCC(Oc2ccc(F)cc2)C1)NCc1ccc(Br)cc1 (configuration not stated),387

# Target: C-C chemokine receptor type 2 (Homo sapiens, UniProt P41597)
# Sequence (P41597 whole entry): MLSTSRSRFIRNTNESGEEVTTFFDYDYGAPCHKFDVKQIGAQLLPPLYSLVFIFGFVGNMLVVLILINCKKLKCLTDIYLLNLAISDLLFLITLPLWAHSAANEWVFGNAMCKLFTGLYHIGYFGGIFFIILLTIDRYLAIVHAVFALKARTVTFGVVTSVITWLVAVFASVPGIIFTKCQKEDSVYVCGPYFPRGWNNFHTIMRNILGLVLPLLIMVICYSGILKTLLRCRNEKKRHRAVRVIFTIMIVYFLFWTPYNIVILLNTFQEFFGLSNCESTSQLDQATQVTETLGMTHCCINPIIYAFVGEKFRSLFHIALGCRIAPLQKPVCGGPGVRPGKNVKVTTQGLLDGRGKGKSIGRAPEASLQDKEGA
# Test: Displacement of [125I]-MIP-1alpha 125I]-MCP1 from CCR2 expressed in CHO ducX#98 cells by scintillation proximity assay
# Type: cell-based
row,IC50 [nM],SMILES
1,925,O=C(NCCCN1CCC(c2ccc(F)cc2)CC1)C1=Cc2cc(Br)ccc2OCC1
2,1880,O=C(NCCCCN1CCC(Cc2ccc(F)cc2)CC1)Nc1ccc(OC(F)(F)F)cc1

# Target: T2, C-C chemokine receptor type 3 (Homo sapiens, UniProt P51677)
# T2 sequence (P51677 whole entry): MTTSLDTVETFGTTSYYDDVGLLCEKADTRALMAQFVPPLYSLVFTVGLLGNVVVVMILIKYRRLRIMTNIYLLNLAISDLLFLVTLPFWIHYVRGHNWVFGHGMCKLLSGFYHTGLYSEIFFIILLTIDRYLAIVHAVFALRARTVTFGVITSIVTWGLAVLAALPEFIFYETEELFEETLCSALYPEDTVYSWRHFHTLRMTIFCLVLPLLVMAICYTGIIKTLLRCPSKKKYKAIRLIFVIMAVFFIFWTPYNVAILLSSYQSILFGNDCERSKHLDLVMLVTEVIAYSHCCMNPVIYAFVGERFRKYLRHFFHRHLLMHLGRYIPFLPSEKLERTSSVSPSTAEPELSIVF
# Test: Displacement of [125I]-eotaxin from CCR3 expressed in RBL-2H3 cells by scintillation proximity assay
# Type: cell-based
row,SMILES,IC50 [nM]
1,O=C(NCCCN1CCC(c2ccc(F)cc2)CC1)C1=Cc2cc(Br)ccc2OCC1,1000
2,COc1ccc(Cl)cc1NC(=O)NCCCCN(C)Cc1ccc(F)cc1,82
3,O=C(NCCCCN1CCC(Oc2ccc(F)cc2)C1)Nc1ccc(F)c(F)c1 (configuration not stated),76

# More lines, now with the values ahead:
row,IC50 [nM],SMILES
1,1190,COc1ccc(OC)c(S(=O)(=O)N2CCC(CN3CCC(Cc4ccc(F)cc4)CC3)CC2)c1
2,65,COc1ccc(OC)c(S(=O)(=O)N2CCC(CN3CCN(Cc4ccc(F)cc4)CC3)CC2)c1

# Target: C-C chemokine receptor type 5 (Homo sapiens, UniProt P51681)
# Sequence (P51681 whole entry): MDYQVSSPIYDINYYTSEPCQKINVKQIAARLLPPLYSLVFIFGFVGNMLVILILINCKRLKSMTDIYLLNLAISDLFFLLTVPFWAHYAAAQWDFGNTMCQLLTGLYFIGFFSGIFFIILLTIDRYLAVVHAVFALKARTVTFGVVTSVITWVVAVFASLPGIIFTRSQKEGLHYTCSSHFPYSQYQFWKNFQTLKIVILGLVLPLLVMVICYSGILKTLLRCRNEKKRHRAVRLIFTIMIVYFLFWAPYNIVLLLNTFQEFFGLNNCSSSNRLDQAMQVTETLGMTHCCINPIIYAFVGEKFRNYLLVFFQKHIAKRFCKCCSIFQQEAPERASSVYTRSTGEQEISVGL
# Test: Displacement of [125I]-MIP-1- alpha from CCR5 expressed in CHO K1 cells by scintillation proximity assay
# Type: cell-based
row,IC50 [nM],SMILES
1,2850,COc1ccc(OC)c(S(=O)(=O)N2CCC(CN3CCC(Cc4ccc(F)cc4)CC3)CC2)c1
2,1300,COc1ccc(C)cc1S(=O)(=O)N1CCC(CN2CCC(c3ccc(F)cc3)CC2)CC1
3,1000,N#Cc1cccc(C(=O)NCCCN2CCC(COCc3ccc(F)cc3)CC2)c1
